Test results taken from patent US20150025077A1 (COYOTE PHARMACEUTICALS, INC., priority 2012, published 2015).

Tested on: HSP70
Experiment: HSP70 levels in Neuro 2a cells, ELISA
Assay type: cell-based, mouse
Conditions: 48 hrs compound then 24 hrs GGTI-298
Method: Mouse neuroblastoma 2a cells were cultured in DMEM with 10% FBS for 24 hrs. […] After 24 hrs cells were harvested and lysates were prepared and analyzed by ELISA for HSP70. Compound ID numbers in table refer to structures in Table 1 and Table 2.

SMILES	HSP70 level, ELISA signal (absence of compounds normalized as 1.00) (10uM)	also measured
CC(C)=CCC/C(C)=C/CC/C(C)=C/CC/C(C)=C/CCC(C)OC(=O)NC(C)C (racemic) [Compound 23a, 5E, 9E, 13E-Geranylgeranyl-rac-prop-2-yl iso-propyl carbamate]		HSP70 level, ELISA signal (absence of compounds normalized as 1.00) (100 nM): 1.21
CCCCCNC(=O)OC(C)CC/C=C(\C)CC/C=C(\C)CC/C=C(\C)CCC=C(C)C (racemic) [Compound 23b, 5E, 9E, 13E-Geranylgeranyl-rac-prop-2-yl n-pentyl carbamate]		HSP70 level, ELISA signal (absence of compounds normalized as 1.00) (100 nM): 1.13
CC(C)=CCC/C(C)=C/CC/C(C)=C/CC/C(C)=C/CCC(C)OC(=O)NC1CCCC1 (racemic) [Compound 23c, Cyclopentyl 5E, 9E, 13E-geranylgeranyl-rac-prop-2-yl carbamate]		HSP70 level, ELISA signal (absence of compounds normalized as 1.00) (100 nM): 0.96
CC(C)=CCC/C(C)=C/CC/C(C)=C/CC/C(C)=C/CCC(C)OC(=O)NC1CCCCCC1 (racemic) [Compound 23e, Cycloheptyl 5E, 9E, 13E-geranylgeranyl-rac-prop-2-yl carbamate]		HSP70 level, ELISA signal (absence of compounds normalized as 1.00) (100 nM): 0.97
CCCCCCNC(=O)OC(C)CC/C=C(\C)CC/C=C(\C)CC/C=C(\C)CCC=C(C)C (racemic) [Compound 23f, 5E, 9E, 13E-Geranylgeranyl-rac-prop-2-yl n-hexyl carbamate]		HSP70 level, ELISA signal (absence of compounds normalized as 1.00) (100 nM): 0.91
CC(C)=CCC/C(C)=C/CC/C(C)=C/CC/C(C)=C/COC(=O)c1cc([N+](=O)[O-])cc([N+](=O)[O-])c1 [Compound 2g, 2E, 6E, 10E-Geranylgeranyl-3′,5′-dinitrobenzoate]	0.91	
COc1cc(C(=O)OC/C=C(\C)CC/C=C(\C)CC/C=C(\C)CCC=C(C)C)cc(OC)c1OC [Compound 2h, 2E, 6E, 10E-Geranylgeranyl-3′,4′,5′-trimethoxybenzoate]	0.94	
CCOc1ccccc1C(=O)OC/C=C(\C)CC/C=C(\C)CC/C=C(\C)CCC=C(C)C [Compound 2j, 2E, 6E, 10E-Geranylgeranyl-2′ethoxybenzoate]	0.95	
COc1ccc(C(=O)OC/C=C(\C)CC/C=C(\C)CC/C=C(\C)CCC=C(C)C)c(OC)c1 [Compound 2k, 2E, 6E, 10E-Geranylgeranyl-2′,4′-dimethoxybenzoate]	0.88	
CC(C)=CCC/C(C)=C/CC/C(C)=C/CC/C(C)=C/COC(=O)c1c(C)cc(C)cc1C [Compound 2l, 2E, 6E, 10E-Geranylgeranyl-2′,4′,6′trimethylbenzoate]	1.05	
CC(C)=CCC/C(C)=C/CC/C(C)=C/COS(=O)(=O)c1ccccc1 [Compound 6a, 2E, 6E-Farnesyl benzenesulfonate]	1.11	
CC(C)=CCC/C(C)=C/CC/C(C)=C/COS(=O)(=O)c1ccc(C)cc1 [Compound 6b, 2E, 6E-Farnesyl p-toluenesulfonate]	1.18	
CC(C)=CCC/C(C)=C/CC/C(C)=C/CC/C(C)=C/COC(=O)NCc1ccco1 [Compound 7aa, 2′-Furanyl methyl 2E, 6E, 10E]-geranylgeranyl carbamate]		HSP70 level, ELISA signal (absence of compounds normalized as 1.00) (100 nM): 1.05
C=CCNC(=O)OC/C=C(\C)CC/C=C(\C)CC/C=C(\C)CCC=C(C)C [Compound 7k, Allyl 2E, 6E, 10E-geranylgeranyl carbamate]	1.20	
CC(C)=CCC/C(C)=C/CC/C(C)=C/CC/C(C)=C/COC(=O)NCc1ccccc1 [Compound 7l, Benzyl 2E, 6E, 10E-geranylgeranyl carbamate]	1.10	
CC(C)=CCC/C(C)=C/CC/C(C)=C/CC/C(C)=C/COC(=O)Nc1ccccc1 [Compound 7n, Phenyl 2E, 6E, 10E-geranylgeranyl carbamate]		HSP70 level, ELISA signal (absence of compounds normalized as 1.00) (100 nM): 1.20
CC(C)=CCC/C(C)=C/CC/C(C)=C/CC/C(C)=C/COC(=O)Nc1ccc(C)cc1 [Compound 7o, P-Tolyl 2E, 6E, 10E-geranylgeranyl carbamate]	1.15	
CCOC(=O)CNC(=O)OC/C=C(\C)CC/C=C(\C)CC/C=C(\C)CCC=C(C)C [Compound 7p, Ethoxycarbonyl methyl 2E, 6E, 10E-geranylgeranyl carbamate]	1.00	
CC(C)=CCC/C(C)=C/CC/C(C)=C/CC/C(C)=C/COC(=O)Nc1cccc2ccccc12 [Compound 7r, 1′-Naphthyl 2E, 6E, 10E-geranylgeranyl carbamate]	0.89	
COc1ccc(NC(=O)OC/C=C(\C)CC/C=C(\C)CC/C=C(\C)CCC=C(C)C)cc1OC [Compound 7t, 3′,4′-Dimethoxyphenyl 2E, 6E, 10E-geranylgeranyl carbamate]		HSP70 level, ELISA signal (absence of compounds normalized as 1.00) (100 nM): 1.07
CC(C)=CCC/C(C)=C/CC/C(C)=C/CC/C(C)=C/COC(=O)Nc1ccc(C(=O)c2ccccc2)cc1 [Compound 7u, p-Benzoyl phenyl 2E, 6E, 10E-geranylgeranyl carbamate]		HSP70 level, ELISA signal (absence of compounds normalized as 1.00) (100 nM): 1.03
COc1cc(NC(=O)OC/C=C(\C)CC/C=C(\C)CC/C=C(\C)CCC=C(C)C)cc(OC)c1OC [Compound 7v, 3′,4′,5′-Trimethoxyphenyl 2E, 6E, 10E-geranylgeranyl carbamate]	1.13	

SMILES	HSP70 level, ELISA signal (absence of compounds normalized as 1.00) (10uM)	also measured
CC(C)=CCC/C(C)=C/CC/C(C)=C/CC/C(C)=C/COC(=O)Nc1ccc2c(c1)Cc1ccccc1-2 [Compound 7x, 9′H-Fluoren-2′-yl isocyanate 2E, 6E, 10E-geranylgeranyl carbamate]	1.00	
CC(C)=CCC/C(C)=C/CC/C(C)=C/CC/C(C)=C/COC(=O)Nc1cccnc1 [Compound 7z, 3′-Pyridyl 2E, 6E,10E-geranylgeranyl carbamate]		HSP70 level, ELISA signal (absence of compounds normalized as 1.00) (100 nM): 0.96
CC(C)=CCC/C(C)=C/CC/C(C)=C/COC(=O)NC(C)C [Compound 8a, iso-Propyl 2E,6E-farnesyl carbamate]	1.33	
CC(C)=CCC/C(C)=C/CC/C(C)=C/COC(=O)NC1CCCC1 [Compound 8c, Cyclopentyl 2E, 6E-farnesyl carbamate]	1.46	
CC(C)=CCC/C(C)=C/CC/C(C)=C/COC(=O)NC1CCCCCC1 [Compound 8d, Cycloheptyl 2E, 6E-farnesyl carbamate]	1.33	
CC(C)=CCC/C(C)=C/CC/C(C)=C/COC(=O)NC12CC3CC(CC(C3)C1)C2 [Compound 8e, Adamantyl 2E, 6E-farnesyl carbamate]	1.09	
CCNC(=O)OC/C=C(\C)CC/C=C(\C)CCC=C(C)C [Compound 8h, Ethyl 2E, 6E-farnesyl carbamate]	0.86	
CCOC(=O)CNC(=O)OC/C=C(\C)CC/C=C(\C)CCC=C(C)C [Compound 8k, Carboethoxymethyl 2E, 6E-farnesyl carbamate]	0.99	
CC(C)=CCC/C(C)=C/CC/C(C)=C/COC(=O)Nc1ccc(C)cc1 [Compound 8l, p-Tolyl 2E, 6E-farnesyl carbamate]	1.03	
CC(C)=CCC/C(C)=C/CC/C(C)=C/COC(=O)Nc1ccc(C(F)(F)F)cc1 [Compound 8n, p-Trifluoromethylphenyl 2E, 6E-farnesyl carbamate]	1.02	
CCNC(=S)OC/C=C(\C)CC/C=C(\C)CCC=C(C)C [Compound 9a, Ethyl 2E, 6E-farnesyl thiocarbamate]	0.94	
CCC(C)NC(=S)OC/C=C(\C)CC/C=C(\C)CCC=C(C)C (stereo not drawn) [Compound 9b, sec-Butyl 2E, 6E-farnesyl thiocarbamate]	0.99	
CCCCNC(=S)OC/C=C(\C)CC/C=C(\C)CCC=C(C)C [Compound 9c, n-Butyl 2E, 6E-farnesyl thiocarbamate]	0.96	
CC(C)=CCC/C(C)=C/CC/C(C)=C/COC(=S)NC1CC1 [Compound 9d, Cyclopropyl 2E, 6E-farnesyl thiocarbamate]	0.95	HSP70 level, ELISA signal (absence of compounds normalized as 1.00) (10 nM): 1.05
CC(C)=CCC/C(C)=C/CC/C(C)=C/COC(=S)NCCCN1CCOCC1 [Compound 9k, Morpholinyl-N-3′-propyl 2E, 6E-farnesyl thiocarbamate]	0.97	HSP70 level, ELISA signal (absence of compounds normalized as 1.00) (10 nM): 1.13
CNC(=S)OC/C=C(\C)CC/C=C(\C)CC/C=C(\C)CCC=C(C)C [Compound 10a, Methyl 2E,6E,10E-geranylgeranyl thiocarbamate]	1.17	
CCC(C)NC(=S)OC/C=C(\C)CC/C=C(\C)CC/C=C(\C)CCC=C(C)C (stereo not drawn) [Compound 10c, sec-Butyryl 2E,6E,10E-geranylgeranyl thiocarbamate]	1.53	
CC(=O)NC(=S)OC/C=C(\C)CC/C=C(\C)CC/C=C(\C)CCC=C(C)C [Compound 10g, Acetyl 2E,6E,10E-geranylgeranyl thiocarbamate]	1.60	
CCCCCCNC(=S)OC/C=C(\C)CC/C=C(\C)CC/C=C(\C)CCC=C(C)C [Compound 10h, n-Hexyl 2E,6E,10E-geranylgeranyl thiocarbamate]	1.58	
CC(C)=CCC/C(C)=C/CC/C(C)=C/CC/C(C)=C/COC(=S)Nc1ccccc1 [Compound 10k, Phenyl 2E,6E,10E-geranylgeranyl thiocarbamate]		HSP70 level, ELISA signal (absence of compounds normalized as 1.00) (100 nM): 1.11
CC(C)=CCC/C(C)=C/CC/C(C)=C/c1cnco1 [Compound 12, 5-((1E,5E)-2,6,10-trimethylundeca-1,5,9-trien-1-yl)oxazole]	1.01	
